Reference: US7071190B2, “Inhibitors to tubulin polymerization” (Rigel Pharmaceuticals, Inc., priority 2002, dated 2006)
“Also recorded” adds a separate entry of the source. Blank lines part the entries; values can stand above or below the compound they belong to.

Legend:
SW480 tumors = experiment: SW480 (colon) human tumor xenograft in nude mice; type: in vivo, NCr nude (nu/nu) female mice; settings: 10 mg/kg daily intraperitoneal
Source text: A nude mouse/human carcinoma model was used to examine the effect of tubulin inhibitors on tumor growth and animal survival. Groups of immune deficient (nude) mice were implanted subcutaneously with suspensions of the human tumor lines A549 (lung) and SW480 (colon). When palpable tumors appeared and were of a preselected volume (approximately 40–150 mm^3), animals were subdivided into various treatment groups such that the variation in mean tumor volume of each group was within 10%. The animals were then treated daily with either control vehicle or Compound 1 administered by intraperitonel injection. Twice weekly, the volume of the tumors in each animal in each group was measured to gather information on tumor growth (volume) as a function of time. Systemic toxicity was assessed by measuring individual animal body weights, and toxicity was evaluated by examination of differences in body weight gain as a function of time. Tumor volumes and body weights were monitored for up to 35 days after the beginning of treatment. […]
After the animals were released from quarantine, the mice were injected subcutaneously in the right flank with either 5×10^6 A549 cells or 5×10^6 SW480 cells in complete medium at an injection volume of 0.1 ml. Tumor dimensions and body weights were measured two times per week. […]

A549 (lung) tumors = experiment: A549 (lung) human tumor xenograft in nude mice; type: in vivo, NCr nude (nu/nu) female mice; settings: for Increase in tumor volume at 35 days normalized to tumor volume at start of drug treatment: vehicle approximately 7-fold; for %T/C (mean tumor volume treated vs. control ×100): A549 xenografts
Source text: A nude mouse/human carcinoma model was used to examine the effect of tubulin inhibitors on tumor growth and animal survival. Groups of immune deficient (nude) mice were implanted subcutaneously with suspensions of the human tumor lines A549 (lung) and SW480 (colon). When palpable tumors appeared and were of a preselected volume (approximately 40–150 mm^3), animals were subdivided into various treatment groups such that the variation in mean tumor volume of each group was within 10%. The animals were then treated daily with either control vehicle or Compound 1 administered by intraperitonel injection. Twice weekly, the volume of the tumors in each animal in each group was measured to gather information on tumor growth (volume) as a function of time. Systemic toxicity was assessed by measuring individual animal body weights, and toxicity was evaluated by examination of differences in body weight gain as a function of time. Tumor volumes and body weights were monitored for up to 35 days after the beginning of treatment.
Cell Lines: Human tumor lines A549 (lung) and SW480 (colon) were grown in cell culture medium (F-11) containing 10% Fetal Bovine Serum (FBS). The cells were kept at 37° C. in a humidified 5% CO2/air incubator. Antibiotics were not added to the medium.
NCr nude (nu/nu) female mice, age 3–4 weeks, were purchased from Taconic (Germantown, N.Y.). The animals were housed ten per cage in sterile filter-topped cages in ventilated cage racks and Microisolator™ cages. Upon arrival, they were quarantined for at least four working days before use. Temperature was maintained at 72±5° F. (19–24° C.) and relative humidity at 35–70%, and a 12-hour light/dark cycle was used. The mice were fed sterile, autoclavable, certified, Purina rodent chow ad libitum. Drinking water was also autoclaved.
After the animals were released from quarantine, the mice were injected subcutaneously in the right flank with either 5×10^6 A549 cells or 5×10^6 SW480 cells in complete medium at an injection volume of 0.1 ml. Tumor dimensions and body weights were measured two times per week. Vernier calipers were used to measure tumors in two planes, and tumor volume (V) was calculated as follows: V=(xy^2)/2,
The test articles were administered intraperitoneally generally at a dose level of 10 mg/kg. When the solubility of a molecule of the invention was relatively low, we used relatively higher levels of organic co-solvents for preparation of the dosing solution. The “vehicle” of the invention comprised of 7.1% ethanol/35.8% PEG400/57.1% phosphate buffer (v/v/v).
When the tumor volumes reached a predetermined size (mean tumor volume between about 40–150 mm^3), animals were added randomly to treatment groups of 12 mice each as follows: Animals were treated daily with the vehicle or Compound 1 (10 mg/kg), or with the positive control drug (Taxol) administered by intraperitoneal injection at the maximum tolerated dose of 20 mg/kg every fourth day, on Days 1, 4, 7, and 10.
The tumor volumes of the animals were monitored for evidence of shrinkage or growth delay for a period of up to 35 days after the start of treatment. Response to treatment was measured in two ways, depending on the tumor response to treatment. The first was the optimum T/C (%), calculated as follows: For each day the tumors were measured, the changes in median tumor volume (V) for each treated (T) and control (C) group were determined by subtracting the […] tumor volume on the first day of treatment (Day 0) from the median tumor volume on the specific observation day. These values were used to express a percent difference in size, [% T/C=(T/C)×100]. The minimum value is designated the optimum response to treatment. A value of 42% or less is considered active by National Cancer Institute (NCI) standards. […]

[1] = tested on: MAP-rich tubulin protein from bovine brain; experiment: Tubulin polymerization turbidity assay (A340 over time); type: biochemical; settings: 10 μM compound, FIG. 1 (a), (b)
Method: FIG. 1. Tubulin polymerization inhibitory activity of the compounds of the invention was assayed by following the turbidity of a tubulin-containing solution over time. Polymerization of tubulin generates microtubules, the presence of which increases the absorbance of the assay solution over time. Effective inhibition manifests as a reduction of rate of absorbance increase at 340 nanometers. (a) 10 μM of compounds 19, 39, 43, 54 and 62, as well as 10 μM nocodazole as a positive control and DMSO as a negative control. (b) 10 μM of compounds 1, 88, 95, and 54, as well as 10 μM as well a positive controls 1 and 2 and DMSO as a negative control. (c) 0.4, 2.0 and 10 μM compound 54 versus 0.4, 2.0 and 10 μM nocodazole as a positive control and DMSO as a negative control.
Measurement of the tubulin polymerization can be achieved using known methodologies. For example, assays for tubulin polymerization may be performed using a kit from Cytoskeleton (Denver, Colo.) and as described by Tahir, S. K., et al, (2001) Cancer Res., 61:5480–5.
The assay measures tubulin polymerization as an increase in turbidity (A340) over time. Assays for tubulin polymerization were performed using a kit from Cytoskeleton (Denver, Colo.) and as described by Tahir, S. K., et al, (2001) Cancer Res., 61: 5480–5, incorporated herein by reference, and as described below.
To determine the ability of the compounds to inhibit microtubule polymerization in vitro, the following protocol was followed: (i) 70 μl ice-cold MAP-rich tubulin protein from bovine brain (1.5 mg/ml final concentration) was added to polymerization buffer (80 mM PIPES pH6.8, 1 mM EGTA, 1 mM MgCl2, 1 mM GTP) in a quartz microcuvette; (ii) 0.7 μl of DMSO or 100X stock of control (nocodazole) or test compound (thienopyrimidine) in DMSO were added to the cuvette; (iii) the contents were mixed by pipefting gently; (iv) the polymerization reaction was initiated by placing the cuvette in pre-warmed (37° C.) cuvette holder in Beckman spectrophotometer; (v) the absorbance was monitored at 340 nm at 30 second intervals for 20 minutes. Tubulin polymerization result in increased turbidity in the reaction solution, which is registered as an increase in absorbance at 340 nm. Inhibitors of tubulin polymerization are detected by a reduction in the rate, the initial slope, and/or extent of the turbidity change (i.e., max. absorbance at 340 nm) in plots of ΔA340 versus time.

A549 cells = experiment: Bromodeoxyuridine (BrdU) proliferation assay; type: cell-based, human
Method: In order to determine the antiproliferative activity of microtubule inhibitors, A549 cells were plated in 96 well plates at 2000 cells/well 24 hours prior to the addition of a compound of the invention in 80 ul growth media (F12K, 10% FBS, Pen/Strep). Prior to addition to cells, compounds were solubilized in 100% DMSO to 5 mM and serially diluted in 6 semi-log steps in 100% DMSO. The diluted compounds were added to cells by two 15.8-fold dilution steps, the first being a dilution into a 23% ethanol/H2O mixture and the second being a dilution into growth media. Finally, these dilutions were followed by a 1:1 dilution onto cells. The resulting final solvent concentration was 0.2% DMSO/0.75% ethanol. Compounds were tested at final concentrations of 10, 3, 1, 0.3, 0.1 and 0.03 uM. Forty-eight hours after the addition of compound, the effects on cellular proliferation were measured using a cell proliferation BrdU ELISA (Roche Molecular Biochemicals, Cat.#1 669 915).

IC50 (A549 cells; Homo sapiens, A549, 48 h, BrdU ELISA 48 hours after addition of compound, tested 0.03-10 uM, cell line not given (A549 method; SW-480 and MDA-MB-231 also used), read-out: Assay Result (IC50μM)): 0.664 µM
Compound: S=C(NNc1ncnc2cc(-c3ccccc3)sc12)Nc1ccccc1 [Compound 1]
Effect on tumor size (SW480 tumors): did not result in a reduced tumor size
Tumor volume (SW480 tumors; controls 677.9±574.3 mm^3): 647.7±500.6 mm^3
Increase in tumor volume at 35 days normalized to tumor volume at start of drug treatment (A549 (lung) tumors; A549 xenograft, 10 mg/kg daily intraperitoneal): 4 fold
Mean tumor volume after 27 days of treatment (A549 (lung) tumors; A549 xenograft, 10 mg/kg daily, vehicle control 346.9±164.7 mm^3): 223.8±164.1 mm^3
Effect on tumor growth (A549 (lung) tumors; A549 xenograft, Compound 1 10 mg/kg daily intraperitoneal, 10 mg/kg): slowed tumor growth substantially; also recorded: substantial suppression of tumor growth
%T/C (mean tumor volume treated vs. control ×100) (A549 (lung) tumors; 10 mg/kg daily intraperitoneal): 65%
Inhibition of tubulin polymerization (reduction of rate of absorbance increase at 340 nanometers) [1]: Inhibition activity is observed
Activity ranking: most active compounds of the invention (A549 cells; antiproliferative activity): most active
Activity ranking: particularly active examples of the compounds of the invention (A549 cells; antiproliferative activity): particularly active

Compound: CC(=O)O[C@H]1C(=O)[C@@]2(C)[C@H]([C@H](OC(=O)c3ccccc3)[C@]3(O)C[C@H](OC(=O)[C@H](O)[C@@H](NC(=O)c4ccccc4)c4ccccc4)C(C)=C1C3(C)C)[C@]1(OC(C)=O)CO[C@@H]1C[C@@H]2O [Taxol, reference compound]
Increase in tumor volume at 35 days normalized to tumor volume at start of drug treatment (A549 (lung) tumors; A549 xenograft, 20 mg/kg intraperitoneal every fourth day (Days 1, 4, 7, 10)): 4 fold
%T/C (mean tumor volume treated vs. control ×100) (A549 (lung) tumors; 20 mg/kg intraperitoneal every fourth day): 59%
